Assay [1] relates to Pfeiffer lymphoma cell line which overexpresses MCL-1 and A1. Briefly: killing of Pfeiffer lymphoma cell line. In kind it is cell-based.
Assay [2] relates to Bax−/−Bak−/− mouse embryo fibroblasts reconstituted with BAXK21E. The assay can be described thus: apoptosis of BAXK21E-reconstituted DKO MEFs (annexin-V binding). It counts as cell-based. As to conditions: compared with wild-type BAX. From the text: (§1) To determine if this single point mutation within the novel BAX binding site impacted the capacity to activate BAX in a cellular context, we retrovirally reconstituted Bax^−/−Bak^−/− mouse embryo fibroblasts (DKO MEFs) with either wild type or BAXK21E and monitored apoptosis induction in response to BIM SAHB. […] This decrease in BAXK21E-mediated apoptosis correlates with impaired activation of […] by BIM SAHB in both oligomerization and cytochrome c release assays (FIG. 15a, 15b).
To probe the broader physiologic impact of the novel BAX activation site, we examined the apoptotic response of DKO MEFs reconstituted with BAX and BAXK21E to staurosporine (STS), a general stimulus known to operate through endogenous BH3-only proteins, including BIM. K21E mutagenesis impaired STS-induced apoptosis, as monitored by annexin V binding over time (FIG. 15d). The reduced activity of BAXK21E was also reflected by impaired cytochrome c release, as detected by subcellular fractionation Western analysis and indirect immunofluorescence. The blunted response of BAXK21E-reconstituted DKO MEFs to STS is uniformly consistent with impaired activation of BAXK21E by BIM SAHB in oligomerization (FIG. 15a), cytochrome c release (FIG. 15b), and cell-based apoptosis assays (FIG. 15c). […]

Assay [3] concerns MCL-1 overexpressing or otherwise chemoresistant cancer cells. The assay can be described thus: reactivating apoptosis of MCL-1 overexpressing or chemoresistant cancer cells. It counts as cell-based. The source says:
Many cancer cells and their relapsed/chemoresistant variants achieve cellular immortality by massively overexpressing anti-apoptotic members of the BCL-2 family. Using BH3 mimetics and small molecules, anti-apoptotic inhibition is one mode of overcoming apoptotic blockade. However, when BH3 mimetics or small molecules have a specificity profile that cannot target a specific anti-apoptotic blockade, such as MCL-1 overexpression (Van Delft et al, Cancer Cell. 2006 Nov.; 10(5):389-99; Konopleva et al, Cancer Cell. 2006 Nov.; 10(5):375-88; Deng et al Cancer Cell. 2007 Aug.; 12(2):171-85), direct BAX modulation can circumvent, or synergize with, such apoptotic blockade for therapeutic benefit. […] Therefore, cancers or other diseased cells that either overexpress anti-apoptotic proteins such as MCL-1 and A1, or cancers or diseased cells that specifically down-regulate activator BH3-only proteins, like BIM, such as in Mantle Cell lymphoma (Tagawa et al Oncogene. 2005 Feb. 17; 24(8):1348-58; Mestre-Escorihuela, Blood. 2007 Jan. 1; 109(1):271-80) and cf. with mouse model of BIM-deletion, are ideally suited for BIM SAHB, or derivatives and mimetics thereof, to reactivate apoptosis through direct engagement of the novel BAX activation site and thereby induce apoptosis for therapeutic purposes and irrespective of the aforementioned apoptotic blockades.

For assay [4], the target named is T1, BCL-2-related ovarian killer (BOK) (Homo sapiens, UniProt Q9UMX3).
T1 sequence (Q9UMX3 1-212): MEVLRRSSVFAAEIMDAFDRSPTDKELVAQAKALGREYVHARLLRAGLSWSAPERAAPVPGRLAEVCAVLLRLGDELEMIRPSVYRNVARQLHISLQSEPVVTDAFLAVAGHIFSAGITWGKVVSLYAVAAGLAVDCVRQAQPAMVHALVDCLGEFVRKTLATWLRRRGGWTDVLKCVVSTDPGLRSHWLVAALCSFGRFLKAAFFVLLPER
The assay can be described thus: binding of SAHB ligands to BOK.

The subject of assay [5] is BAX-mediated cytochrome c release, BAX/BAK doubly-deficient mouse liver mitochondria. Briefly: mitochondrial cytochrome c release assay. As to conditions: Alb-cre pos Bax flox/− Bak−/− mouse liver mitochondria plus BAX. In kind it is biochemical. From the text: (§2) To confirm that the SEC-based detection of BIM SAHB-induced BAX oligomerization reflects functional activation of BAX for its release activity, we performed correlative liposomal and mitochondrial assays. […] Thus, in four distinct in vitro assays that measure ligand-induced BAX activation, BIM SAHB directly and dose-responsively triggered BAX.
Mitochondrial Release Assay: In order to test activation/inhibition of a BCL-2 family polypeptide interactions on mitochondrial apoptosis induction, a cytochrome c release assay is used that employs mouse liver mitochondria from Bak^−/− mice or Alb-cre^posBax^flox/−Bak^−/− mice, added recombinant BCL-2 family polypeptide, e.g., BAX, BAK, or BOK (50 nM) with or without increasing doses of SAHBs (50-500 nM), and an ELISA-based read-out of cytochrome c. Negative controls include recombinant protein alone, compounds alone, vehicle treatment, point mutant SAHBs, and blockade using anti-apoptotic proteins, such as BCL-XL ΔC.

For the next assay, the target named is monomeric BAX (Homo sapiens, UniProt Q07812). Briefly: BAX oligomerization assay (size exclusion chromatography). It counts as biochemical. As to conditions: wild-type BAX, room temperature. The source says:
In contrast to the stable inhibitory interactions of BIM BH3 with anti-apoptotic proteins, the BAX-activating interaction triggers a dynamic continuum of events that includes BAX conformational change and oligomerization. […] In monomeric BAX, the center of the loop weakly associates with residues Ile133 and Met 137 of the α6 helix (Suzuki & Tjandra, Cell 103 (4), 645-654 (2000)). Changes observed in the loop residues can readily be explained by the shift of the loop conformation into an open form upon BIM SAHB binding. Because loop displacement upon ligand engagement may initiate a conformational change of BAX, we investigated whether BIM SAHB binding could directly activate BAX in solution. We monitored both the conversion of BAX from monomer to oligomer by size-exclusion chromatography (SEC) and the exposure of its buried N-terminal residues using the 6A7 antibody, which selectively detects the conformational change associated with BAX activation (Hsu & Youle, The Journal of biological chemistry 272 (21), 13829-13834 (1997)). […] Thus, the transient stability of the BIM SAHB-BAX complex we observe by NMR correlates with the interaction-triggered BAX conformational change and oligomerization that we detect biochemically.
Oligomerization assay: BIM SAHB was added to a 200 μL solution (20 mM Hepes/KOH pH 7.2-7.4, 150 mM KCl) containing monomeric BAX (38 μM) at a ratio of 0.5:1, 1:1, 2:1 and 4:1 BIM SAHB:BAX. The mixtures and a sample of BAX monomer alone were incubated at 22° for 15 minutes and then subjected to analysis by size exclusion chromatography (SEC) using an SD75 column. […] Protein standards (GE Healthcare) were used to calibrate the molecular weights of gel filtration peaks. For time-dependent analysis, BIM SAHB was added to monomeric BAX at a ratio of 1:1, and the mixtures were analyzed by SEC after incubation for 30, 60, and 90 minutes at 22° C. As a baseline for comparison, Bax monomer alone was analyzed at time 0 and the above time points.
In general terms: SEC sorts molecules by how far they enter the pores of the column.

In assay [6] the test system is Bax−/−Bak−/− mouse embryo fibroblasts reconstituted with wild type BAX. The assay can be described thus: apoptosis of BAX-reconstituted DKO MEFs (annexin-V binding). It counts as cell-based.
Text: as §1

Another assay deals with BAX (Homo sapiens, UniProt Q07812). Briefly: liposomal release assay (FITC-dextran). As to conditions: combination with BAX. In kind it is biochemical.
BAX, sequence (Q07812 whole entry): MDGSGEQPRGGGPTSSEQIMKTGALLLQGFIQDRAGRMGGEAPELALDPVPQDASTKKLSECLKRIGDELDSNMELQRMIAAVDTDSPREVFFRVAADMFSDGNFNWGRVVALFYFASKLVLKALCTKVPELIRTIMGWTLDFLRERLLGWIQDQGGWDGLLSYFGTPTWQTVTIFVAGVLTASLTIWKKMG
Text: as §2
Liposomal Release Assay: Another assay that can be used to determine modulation of the BCL-2 family polypeptide is a liposomal release assay that simulates the mitochondria but only includes the essential components for BAX/BAK/BOK-induced release. […] Lipid concentration is determined by measuring vesicular phosphate content (Böttcher, C. J. F. et al. (1961) Anal Chim Acta 24, 203-204). The fluorescence dequenching assay is adapted from previous reports (Kuwana, T. et al. (2002) Cell 111(3), 331-342) (Terrones, O., et al. (2004) J Biol Chem 279(29), 30081-30091). The release of FITC-labeled dextran-10 kD from LUVs is monitored using a FluoroMax-2 spectrofluorometer (SPEX), in a thermostated 1 cm path length quartz cuvette with constant stirring at 37° C. […]

Ends that are not written are not given here.

monomeric BAX, sequence (Q07812 whole entry): as above

As for `CN(C)CC[C@H](CSc1ccccc1)Nc1ccc(S(=O)(=O)NC(=O)c2ccc(N3CCN(Cc4ccccc4-c4ccc(Cl)cc4)CC3)cc2)cc1[N+](=O)[O-]` [ABT-737, reference compound], the “cell killing / sensitivity” value in assay [1] is listed as “resistant”.
With `CN[C@@H]1C[C@H]2O[C@@](C)([C@@H]1OC)n1c3ccccc3c3c4c(c5c6ccccc6n2c5c31)C(=O)NC4` [staurosporine, reference compound], the “apoptosis induction, annexin-V binding” value in assay [2] was “impaired”.
For “BID SAHB: hydrocarbon-stapled BID BH3 polypeptide (FIG. 9, SEQ ID NO:4) (ESQEDIIRNIARHLAQVGDEMDRSI; staple (positions not given here); also: hydrocarbon staple, positions not given here; listed as Homo sapiens)”, the “potency in reactivating apoptosis relative to ABT-737 or BAD SAHB” value in assay [3] is “more potent”. In assay [4], the “binding to BOK” value is reported as “bound”.
With “BIM SAHB R153D: BIM SAHB with reverse-polarity point mutation R153D at the BAX interaction surface (FIG. 13a) (EIWIAQELDRIGDEFNAYYARR; staple (positions not given here); also: hydrocarbon staple, positions not given here)”, the “apoptosis induction, annexin-V binding” value in assay [2] and in assay [6] was “abolished” in each case. The “BAX-mediated cytochrome c release” value in assay [5] is listed as “abrogated”. Also, the “BAX oligomerization (monomer to oligomer, SEC)” value (“BAX oligomerization” below) with monomeric BAX is reported as “abrogated”. For the same compound, the “liposomal release of entrapped FITC-dextran” value with BAX was “abrogation of activity”.
On to “D157R: BIM SAHB with reverse-polarity point mutation D157R (FIG. 13a) (EIWIAQELRRIGREFNAYYARR; staple (positions not given here); also: hydrocarbon staple, positions not given here)”, for which the “BAX-mediated cytochrome c release” value in assay [5] is “abrogated”. The “BAX oligomerization” value with monomeric BAX is “abrogated”.
Take “I155E: BIM SAHB with hydrophobic to charged point mutation I155E (FIG. 13a) (EIWIAQELRREGDEFNAYYARR; staple (positions not given here); also: hydrocarbon staple, positions not given here)”: the “BAX-mediated cytochrome c release” value in assay [5] is “abrogated”. For the same compound, in the assay with monomeric BAX, the “BAX oligomerization” value is “abrogated”.

For the origin of these results see US8921323B2, “Methods and compositions for modulating BCL-2 family polypeptides” (Dana Farber Cancer Institute, Inc., priority 2007, dated 2014).
